Experimental data published in US4902678A, “Anti-viral compositions” (priority 1988, dated 1990).

Legend:
human herpesviruses = conditions: cited from earlier work
HSV-1-Patton = assay: Plaque reduction / viral plaque titration, HSV-1-Patton in HFF cells
Description: (§1) Human fetal fibroblasts (HFF) derived from fetal tissues were used in this study. Cells were grown and maintained in Basal Medium Eagle (BME) supplemented with 0.112% sodium bicarbonate, 2mML-glutamine, 2mg % Neomycin and 20% (vol/vol) calf serum.
(§2) A viral plaque titration method (Roizman and Roane, 1961) was used to deteremine the titer of the HSV strain. Tissue culture dishes (35 by 10mm, Corning) were seeded with cells and used for assays when they were approximately 75% monolayer. Volumes (0.2ml) of logarithmic dilutions of the virus strain were inoculated onto each of two tissue culture dishes and adsorbed for 1 hr with intermittent shaking, the inoculum was removed and 2ml of 20% BME containing 0.5% human immune serum globulin was added. After a 48 hr. incubation period at 36° C. in a 5% CO2 atmosphere, the overlay medium was removed, and the cell sheets were stained with a 0.05% aqueous crystal violet solution. The plaque numbers were counted with the aid of a Nikon profile projector which magnified the dishes 10X. Duplicate results were averaged, and the number of plaque-forming units (PFU) was calculated. The virus titre is thus expressed as a number of plaque forming units to be seen after growth under these conditions.
As antiviral drugs in these experiments, there were used acycloguanosine (ACG), phosphonoacetic acid (PAA), bromovinyl deoxyuridine (BVDU), phosphonoformic acid (PFA) and 9-[[2-hydroxy-1-(hydroxymethyl)ethoxy]methyl]guanine (G*). Stock solutions, 3mg/ml, of each drug were prepared as follows, kept at -20° C., and appropriate dilutions thereof were made in 20% BME just before usage:
In order to make comparisons between the activities of the various drugs and combinations, experiments were conducted by plaque titration to determine for each drug its viral ED-50 (i.e. the concentration thereof which inhibits HSV plaque formation by 50% in the HFF cells, as compared with cell cultures in the absence of the drug). For this purpose, tissue culture dishes (35 by 10 mm) with HFF cell monolayers at 75% confluence were inoculated with approximately 50 plaque-forming units of virus per 0.2 ml, and the virus was allowed to adsorb for 1 hr with intermittent shaking. After removal of the inoculum, 2 ml of 20% BME with 0.5% immune globulin and threefold dilutions of the appropriate drug were added to duplicate dishes. One set of dishes received no drug and was later used for the "no-drug control". After a 48 hr incubation period at 36° C. in a 5% CO2 atmosphere, the overlay medium was removed, the cells were stained as described above, and plaques were counted. After averaging the counts of duplicate plates, the fraction of plaques emerging in the presence of each drug dilution was calculated as a percent of the control. Each drug titration was plotted on semilogarithmic graph paper, with the number of plaques per dish as vertical axis and the drug concentration as horizontal axis. The viral ED-50 concentration was that amount of drug per ml of overlay medium that inhibited plaque numbers by 50%, compared with no-drug controls, and this was read off the graphic plot of the data.
Then combinations of the drugs were tested for activity by viral plaque titration, at concentrations which were multiples of the ED-50, of the individual drugs. In combinations involving G*, BVDU and AGC, a concentration ten times that of its ED-50 was used in the combination. […] In respect of PAA, a concentration of five times ED-50 was used, to avoid cell toxicity problems.

[1] = system: herpes virus-specific DNA-polymerase (DP); conditions: hypothesis on mode of action; cited from earlier work
[2] = system: Cellular TK and DP enzymes; conditions: cited from earlier work
normal host cells = conditions: cited from earlier work
[3] = system: herpes virus-specific thymidine kinase (TK); conditions: hypothesis on mode of action; cited from earlier work
[4] = system: HSV mutants lacking the ability to induce DP (DP-mutants); conditions: cited from earlier work
HSV-2-EL 3 = assay: Viral plaque titration, HSV-2-EL 3 in HFF cells; conditions: Table 3, G* 2.0 μg/ml, PAA 82 μg/ml, alone or combined; for Virus titer: no-drug control 77
Description: as §1
(§3) HSV-2-EL 1, HSV-2-EL 3, HSV-2-EL 4, HSV-2-EL 6, HSV-1-EL 11 and HSV-1-227 are recent clinical isolates.
as §2
(§4) Then combinations of the drugs were tested for activity by viral plaque titration, at concentrations which were multiples of the ED-50, of the individual drugs. In combinations involving G*, BVDU and AGC, a concentration ten times that of its ED-50 was used in the combination. This was intended to ensure a concentration sufficiently high to limit the number of partially drug-resistant virus plaques to a small fraction in respect of each drug of the combination. In respect of PAA, a concentration of five times ED-50 was used, to avoid cell toxicity problems. The drugs were individually plaque titrated at the same concentrations for comparison purposes.
(§5) The experiments described in Examples 1 and 2 were essentially repeated, but using the drugs G* and PAA alone and in combinations against samples of HFF cells each infected with one of six HSV strains, two of which were type 1 and four of which were type 2. Plaque titration methods as described above were used.

HSV-2-EL 4 = assay: Viral plaque titration, HSV-2-EL 4 in HFF cells; conditions: alone or combined; for Virus titer: no-drug control 750
Description: as §1, §3, §2, §4
(§6) In this example, combinations of G* and phosphonoformic acid PFA were tested, by plaque titration methods, for activity against a variety of herpesvirus strains in HFF cells, using procedures previously described. A stock solution of PFA was made up ahead of time, by dissolving 3 mg PFA in 1 ml of 20% BME, and stored at -20° C. It was appropriately diluted in 20% BME just before usage. Two herpesvirus type 2 strains and one herpesvirus type 1 strain were tested.
as §5

HSV-2-EL 6 = assay: Viral plaque titration, HSV-2-EL 6 in HFF cells; conditions: alone or combined
Description: as §1, §3, §2, §4, §6, §5

HSV-2-EL 1 = conditions: Table 3, HFF cells, G* 2.0 μg/ml, PAA 76 μg/ml, alone or combined; for Virus titer: no-drug control 170
Description: as §1, §3, §2, §4, §5

[5] = system: HSV mutants lacking the ability to induce DP (DP-mutants); assay: Activity against HSV mutants lacking the ability to induce DP (statement); set-up: species or system Herpes simplex virus
HSV-1-EL 11 = conditions: Table 3, HFF cells, G* 0.4 μg/ml, PAA 25 μg/ml, alone or combined; for Virus titer: no-drug control 8.0
Description: as §1, §3, §2, §4, §5

HSV-1-227 = assay: Viral plaque titration, HSV-1-227 in HFF cells; conditions: Table 3, G* 2.0 μg/ml, PAA 80 μg/ml, alone or combined; for Virus titer: no-drug control 28
Description: as §1, §3, §2, §4, §5

[6] = topical formulation, drug concentrations in excess of 100mM; cited from earlier work
[7] = Table 1, multiplicity of infection less than one, G* 1.2, BVDU 0.11, ACG 2.0, PAA 250 μg/ml alone, same concentrations in combinations, no-drug control 147
[8] = Table 1, ratio of control titer to drug titer, G* 1.2, BVDU 0.11, ACG 2.0, PAA 250 μg/ml alone, same concentrations in combinations
[9] = Table 2, G* 0.7 μg/ml, PFA 80 μg/ml, alone or combined
[10] = Table 2, G* 0.7 μg/ml, PFA 80 μg/ml, alone or combined, no-drug control 3400
[11] = Table 2, G* 3.0 μg/ml, PFA 80 μg/ml
[12] = Table 3, G* 2.0 μg/ml, PAA 90 μg/ml
[13] = Table 2, G* 0.7 μg/ml, PFA 80 μg/ml
[14] = Table 2, G* 0.7 μg/ml, PFA 80 μg/ml, no-drug control 150
[15] = Table 3, G* 0.6 μg/ml, PAA 90 μg/ml
[16] = Table 3, G* 0.6 μg/ml, PAA 90 μg/ml, no-drug control 180

In the case of `O=CC[C@@H](O)[C@H](O)[C@H](O)CO` [2DB, 2-deoxy-D-glucose], the “Activity against herpesviruses in prior art” value (from here on “Activity against herpesviruses”) (human herpesviruses) is given as “some demonstrated activity against human herpesviruses”.
For `Nc1nc2c(ncn2COCCO)c(=O)[nH]1` [ACG, 9-[2-hydroxyethoxymethyl]guanine], the Virus titer (HSV-1-Patton; [7]) is given as 4.7 PFU/ml × 10^5, the Fold titer reduction (HSV-1-Patton; [8]) is given as 31 fold and the “Interaction with viral DNA polymerase” value [1] is given as “inhibits the action of the herpes virus-specific DNA-polymerase (DP)”. For the same molecule, the “Effect on cellular TK and DP enzymes” value [2] was “only slightly affected”, the “Toxicity for uninfected cells” value (normal host cells) was “relatively low toxicity for uninfected cells” and the “Interaction with viral thymidine kinase” value [3] was “interaction with the herpes virus-specific thymidine kinase (TK) resulting in phosphorylation of the acycloguanosine”. The “Resistance of DP-mutants of HSV to drug” value [4] was “highly resistant” and the “Activity against herpesviruses” value (human herpesviruses) was “relatively high antiviral activity”.
In the case of `O=c1[nH]c(=O)n([C@H]2C[C@H](O)[C@@H](CO)O2)cc1/C=C/Br` [BVDU, bromovinyl deoxyuridine], the Virus titer (HSV-1-Patton; [7]) was 2.1 PFU/ml × 10^5 and the Fold titer reduction (HSV-1-Patton; [8]) was 70 fold.
With `Nc1nc2c(ncn2COC(CO)CO)c(=O)[nH]1` [G*] the Virus titer (HSV-1-Patton; [7]) was 1.1 PFU/ml × 10^5, the Fold titer reduction (HSV-1-Patton; [8]) was 130 fold and the Fold titer reduction (HSV-1-Patton; [9]) was 24 fold. For the same molecule, the Virus titer (HSV-1-Patton; [10]) was 140 pfu/ml × 10^5, the “Interaction with viral DNA polymerase” value [1] was “not involved in the activity of virus-specific DNA-polymerase” and the Fold titer reduction (HSV-2-EL 3) was 7.7 fold. The Virus titer (HSV-2-EL 3) was 10.0 pfu/ml × 10^5, the Fold titer reduction (HSV-2-EL 4; [11]) was 36 fold and the Virus titer (HSV-2-EL 4; [11]) was 21 pfu/ml × 10^5. The Fold titer reduction (HSV-2-EL 4; [12]) was 130 fold, the Virus titer (HSV-2-EL 4; [12]) was 5.9 pfu/ml × 10^5 and the Fold titer reduction (HSV-2-EL 6; [13]) was 3.8 fold. The Virus titer (HSV-2-EL 6; [14]) was 40 pfu/ml × 10^5, the Fold titer reduction (HSV-2-EL 6; [15]) was 200 fold and the Virus titer (HSV-2-EL 6; [16]) was 0.90 pfu/ml × 10^5. For the same molecule, the “Interaction with viral thymidine kinase” value [3] was “inhibits the activity of the viral thymidine kinase enzyme”, the Fold titer reduction (HSV-2-EL 1) was 19 fold and the Virus titer (HSV-2-EL 1) was 8.9 pfu/ml × 10^5. For the same molecule, the “Inhibition of DP-mutants of HSV” value [5] was “able to inhibit HSV mutants lacking the ability to induce DP”, the Fold titer reduction (HSV-1-EL 11) was 22 fold and the Virus titer (HSV-1-EL 11) was 0.37 pfu/ml × 10^5. It also gave a Fold titer reduction (HSV-1-227) of 110 fold and a Virus titer (HSV-1-227) of 0.25 pfu/ml × 10^5.
In the case of `O=c1[nH]c(=O)n([C@H]2C[C@H](O)[C@@H](CO)O2)cc1I` [IDU, 5-iododeoxyuridine], the “Side effects / toxicity to normal cells” value (normal host cells; prior art) is given as “undesirable side effects, associated with toxicity to normal cells” and the “Activity against herpesviruses” value (human herpesviruses) is given as “effective only against herpes infections of the eyes”.
For `O=C(O)CP(=O)(O)O` [PAA, phosphonoacetic acid], the Virus titer (HSV-1-Patton; [7]) is given as 3.2 PFU/ml × 10^5, the Fold titer reduction (HSV-1-Patton; [8]) is given as 50 fold and the “Interaction with viral DNA polymerase” value [1] is given as “interference with viral DNA polymerase, not viral thymidine kinase”. It also gave a Fold titer reduction (HSV-2-EL 3) of 210 fold, a Virus titer (HSV-2-EL 3) of 0.36 pfu/ml × 10^5 and a Fold titer reduction (HSV-2-EL 4; [12]) of 7500 fold. For the same molecule, the Virus titer (HSV-2-EL 4; [12]) was 0.10 pfu/ml × 10^5, the Fold titer reduction (HSV-2-EL 6; [15]) was 5.8 fold and the Virus titer (HSV-2-EL 6; [16]) was 31.0 pfu/ml × 10^5. The “Skin irritation” value [6] was “skin irritant”, the “Resistance of DP-mutants of HSV to drug” value [4] was “highly resistant” and the Fold titer reduction (HSV-2-EL 1) was 500 fold. For the same molecule, the Virus titer (HSV-2-EL 1) was 0.34 pfu/ml × 10^5, the “Activity against herpesviruses” value (human herpesviruses) was “some demonstrated activity against human herpesviruses” and the Fold titer reduction (HSV-1-EL 11) was 2.9 fold. The Virus titer (HSV-1-EL 11) was 2.8 pfu/ml × 10^5, the Fold titer reduction (HSV-1-227) was 26 fold and the Virus titer (HSV-1-227) was 1.1 pfu/ml × 10^5.
Work on `O=C(O)P(=O)(O)O` [PFA, phosphonoformic acid] yielded a Fold titer reduction (HSV-1-Patton; [9]) of 4.5 fold, a Fold titer reduction (HSV-1-Patton; Table 2, G* 0.7 μg/ml, PFA 80 μg/ml, alone or combined, listed as PFF) of 750 fold and a Virus titer (HSV-1-Patton; [10]) of 750 pfu/ml × 10^5. For the same molecule, the “Interaction with viral DNA polymerase” value [1] was “interference with viral DNA polymerase, not viral thymidine kinase”, the Fold titer reduction (HSV-2-EL 4; [11]) was 2,700 fold and the Virus titer (HSV-2-EL 4; [11]) was 0.28 pfu/ml × 10^5. The Fold titer reduction (HSV-2-EL 6; [13]) was 3.1 fold, the Virus titer (HSV-2-EL 6; [14]) was 48 pfu/ml × 10^5 and the “Skin irritation” value [6] was “do not appear harmful”. The “Activity against herpesviruses” value (human herpesviruses) was “some demonstrated activity against human herpesviruses”.
In the case of `Nc1ncnc2c1ncn2[C@@H]1O[C@H](CO)[C@@H](O)[C@@H]1O` [ara-A, Adenine arabinoside], the “Activity against herpesviruses” value (human herpesviruses) is listed as “some demonstrated activity against human herpesviruses”.
